{"source": "patent US6521627B1", "about": "“5-Iodo-4-phenethylaminopyrimidine derivative, intermediate thereof, processes for producing the same and agricultural and horticultural pesticides” (UBE Industries, Ltd., priority 1998, dated 2003)", "key": {"[1]": {"system": "southern root knot nematodes", "assay": "Test of effect on southern root knot nematodes", "type": "in vivo, southern potato root knot nematodes", "conditions": "wettable powder diluted to 300 ppm, 0.1 ml plus 0.9 ml solution containing 500 nematodes; 25° C., after 2 days", "procedure": "(1) Test of effect on southern root knot nematodes The respective wettable powders of Compounds (1) shown in Table 2 prepared as in Example 3 were diluted to 300 ppm with water, 0.1 ml of which is taken into the test tubes, and 0.9 ml of a solution containing 500 southern potato root knot nematodes was added thereto, respectively. Subsequently, these test tubes were left to stand in a thermostat chamber at 25° C., and after 2 days, nematodecidal rate was determined by observing with microscope."}, "green rice leafhopper": {"system": "green rice leafhopper", "assay": "Test of effect on green rice leafhopper", "type": "in vivo, green rice leafhoppers (4th instar larvae)", "conditions": "wettable powder diluted to 300 ppm; young seedlings of rice dipped for 30 seconds; 25° C., after 4 days", "procedure": "(§1) (5) Test of effect on green rice leafhopper The respective wettable powders of Compounds (1) shown in Table 2 prepared as in Example 3 were diluted to 300 ppm with water containing a surfactant (0.01%), and in these respective chemical solutions, young seedlings of rice were dipped for 30 seconds, and after air-drying, each was put into the respective glass cylinders. Subsequently, 10 green rice leafhoppers (4th instar larvae) were placed in the respective glass cylinders, and porous stoppers were each placed on them and they were left to stand in a thermostat chamber at 25° C., and after 4 days, insecticidal rate was determined by counting living and dead insects in the respective cylinders."}, "tobacco cutworm": {"system": "tobacco cutworm", "assay": "Test of effect on tobacco cutworm", "type": "in vivo, tobacco cutworm (2nd instar larvae)", "conditions": "wettable powder diluted to 500 ppm; soybean leaves dipped for 30 seconds; 25° C., after 2 days", "procedure": "(6) Test of effect on tobacco cutworm The respective wettable powders of Compounds (1) shown in Table 2 prepared as in Example 3 were diluted to 500 ppm with water containing a surfactant (0.01%), and in these respective chemical solutions, leave of soybean were dipped for 30 seconds. After air-drying, each of the leave was put into the respective plastic cups, 10 tobacco cutworm (2nd instar larvae) were placed in the respective cups, and put the lids on them and they were left to stand in a thermostat chamber at 25° C. After 2 days, insecticidal rate was determined by counting living and dead insects in the respective cups."}, "diamondback moth": {"system": "diamondback moth", "assay": "Test of effect on diamondback moth", "type": "in vivo, diamondback moths (3rd instar larvae)", "conditions": "wettable powder diluted to 300 ppm; cabbage leaves dipped for 30 seconds; 25° C., after 2 days", "procedure": "(3) Test of effect on diamondback moth The respective wettable powders of Compounds (1) shown in Table 2 prepared as in Example 3 were diluted to 300 ppm with water containing a surfactant (0.01%), and in these respective chemical solutions, cabbage leaves (5×5 cm) were dipped for 30 seconds, and each leaf was put into the respective plastic cups and air-dried. Subsequently, 10 diamondback moths (3rd instar larvae) were placed in the respective cups, and put the lids on them and they were left to stand in a thermostat chamber at 25° C., and after 2 days, insecticidal rate was determined by counting living and dead insects in the respective cups."}, "brown rice planthopper": {"system": "brown rice planthopper", "assay": "Test of effect on brown rice planthopper", "type": "in vivo, brown rice planthoppers (4th instar larvae)", "conditions": "wettable powder diluted to 300 ppm; young seedlings of rice dipped for 30 seconds; 25° C., after 4 days", "procedure": "as §1, with “(4)” for “(5)”, “brown” for “green”, “planthopper” for “leafhopper”, “planthoppers” for “leafhoppers”"}}, "data": [{"smiles": "CC(=O)OC(C)c1ncnc(NCCc2ccc(OC(F)(F)F)cc2)c1I", "note": "(centres unmarked) [1-(21), 6-(1-acetoxyethyl)-5-iodo-4-[2-(4-trifluoromethoxyphenyl)ethylamino]pyrimidine]", "values": [{"measurement": "melting point", "result": "77 to 79", "unit": "°C"}]}, {"smiles": "CC(F)c1ncnc(NCCc2ccc(OC(F)(F)F)cc2)c1I", "note": "(centres unmarked) [1-(23), 6-(1-fluoroethyl)-5-iodo-4-[2-(4-trifluoromethoxyphenyl)ethylamino]pyrimidine]", "values": [{"measurement": "nematodecidal effect (nematodecidal rate)", "setting": "[1]", "result": 100, "unit": "%"}, {"measurement": "insecticidal effect (insecticidal rate)", "setting": "green rice leafhopper", "result": 100, "unit": "%"}, {"measurement": "insecticidal effect (insecticidal rate)", "setting": "tobacco cutworm", "result": 100, "unit": "%"}, {"measurement": "insecticidal effect (insecticidal rate)", "setting": "diamondback moth", "result": 100, "unit": "%"}, {"measurement": "insecticidal effect (insecticidal rate)", "setting": "brown rice planthopper", "result": 100, "unit": "%"}]}, {"smiles": "CC(F)c1ncnc(NCCc2ccccc2)c1I", "note": "(centres unmarked) [Compound 1-(1), 6-(1-fluoroethyl)-5-iodo-4-(2-phenylethylamino)pyrimidine]", "values": [{"measurement": "nematodecidal effect (nematodecidal rate)", "setting": "[1]", "result": 100, "unit": "%"}, {"measurement": "insecticidal effect (insecticidal rate)", "setting": "green rice leafhopper", "result": 100, "unit": "%"}, {"measurement": "insecticidal effect (insecticidal rate)", "setting": "diamondback moth", "result": 100, "unit": "%"}, {"measurement": "insecticidal effect (insecticidal rate)", "setting": "brown rice planthopper", "result": 100, "unit": "%"}]}, {"smiles": "CC(Cl)c1ncnc(NCCc2ccccc2)c1I", "note": "(centres unmarked) [Compound 1-(2), 6-(1-chloroethyl)-5-iodo-4-(2-phenylethylamino)pyrimidine]", "values": [{"measurement": "melting point", "result": "101 to 102", "unit": "°C"}]}, {"smiles": "CC(=O)OC(C)c1ncnc(NCCc2ccccc2)c1I", "note": "(stereo not drawn) [Compound 1-(3), 6-(l-acetoxyethyl)-5-iodo-4-(2-phenylethylamino)pyrimidine]", "values": [{"measurement": "insecticidal effect (insecticidal rate)", "setting": "diamondback moth", "result": 100, "unit": "%"}]}, {"smiles": "CC(F)c1ncnc(NCCc2ccc(F)cc2)c1I", "note": "(centres unmarked) [Compound 1-(5), 6-(1-fluoroethyl)-5-iodo-4-[2-(4-fluorophenyl)ethylamino]pyrimidine]", "values": [{"measurement": "nematodecidal effect (nematodecidal rate)", "setting": "[1]", "result": 100, "unit": "%"}, {"measurement": "insecticidal effect (insecticidal rate)", "setting": "green rice leafhopper", "result": 100, "unit": "%"}, {"measurement": "insecticidal effect (insecticidal rate)", "setting": "tobacco cutworm", "result": 100, "unit": "%"}, {"measurement": "insecticidal effect (insecticidal rate)", "setting": "diamondback moth", "result": 100, "unit": "%"}, {"measurement": "insecticidal effect (insecticidal rate)", "setting": "brown rice planthopper", "result": 100, "unit": "%"}]}]}
